Experimental data reported in US10294202B2, “Pyrrolidinones as herbicides” (FMC Corporation, priority 2013, dated 2019).

Experiments:
Assay in all cases: Test D pre-/postemergence herbicide test
chickweed = format: in vivo, Stellaria media; conditions: for Plant response rating, Chickweed: scale 0 to 100 (0 no effect, 100 complete control); for Plant response rating: Chickweed, scale 0 to 100
Source text: (§1) Seeds of plant species selected from bluegrass (annual bluegrass, Poa annua), blackgrass (Alopecurus myosuroides), canarygrass (littleseed canarygrass, Phalaris minor), chickweed (common chickweed, Stellaria media), galium (catchweed bedstraw, Galium aparine), bromegrass, downy (downy bromegrass, Bromus tectorum), field poppy (Papaver rhoeas), field violet (Viola arvensis), foxtail, green (green foxtail, Setaria viridis), deadnettle (henbit deadnettle, Lamium amplexicaule), ryegrass, Italian (Italian ryegrass, Lolium multiflorum), kochia (Kochia scoparia), lambsquarters (Chenopodium album), oilseed rape (Brassica napus), pigweed (Amaranthus retroflexus), chamomile (scentless chamomile, Matricaria inodora), Russian thistle (Salsola kali), speedwell (bird's-eye speedwell, Veronica persica), barley, spring (spring barley, Hordeum vulgare), wheat, spring (spring wheat, Triticum aestivum), buckwheat, wild (wild buckwheat, Polygonum convolvulus), mustard, wild (wild mustard, Sinapis arvensis), oat, wild (wild oat, Avena fatua), radish, wild (wild radish, Raphanus raphanistrum), […]), barley, winter (winter barley, Hordeum vulgare), and wheat, winter (winter wheat, Triticum aestivum) were planted into a silt loam soil and treated preemergence with test chemicals formulated in a non-phytotoxic solvent mixture which included a surfactant. At the same time, these species were planted in pots containing Redi-Earth® planting medium (Scotts Company, 14111 Scottslawn Road, Marysville, Ohio 43041) comprising spaghnum peat moss, vermiculite, wetting agent and starter nutrients and treated with postemergence applications of the test chemicals formulated in the same manner. Plants ranged in height from 2 to 18 cm (1- to 4-leaf stage). Treated plants and controls were maintained in a controlled growth environment for 7 to 21 days after which time all species were compared to controls and visually evaluated. Plant response ratings, summarized in Table D, are based on a scale of 0 to 100 where 0 is no effect and 100 is complete control. A dash (-) response means no test result.

kochia = format: in vivo, Kochia scoparia; conditions: for Plant response rating, Kochia: scale 0 to 100 (0 no effect, 100 complete control); for Plant response rating: Kochia, scale 0 to 100
Source text: as §1

wheat, spring = format: in vivo, Triticum aestivum; conditions: for Plant response rating, Wheat, Spring: Preemergence, scale 0 to 100 (0 no effect, 100 complete control); for Plant response rating: Postemergence, Wheat, Spring, scale 0 to 100
Source text: as §1

wheat, winter = format: in vivo, Triticum aestivum; conditions: for Plant response rating, Wheat, Winter: Preemergence, scale 0 to 100 (0 no effect, 100 complete control); for Plant response rating: Postemergence, Wheat, Winter, scale 0 to 100
Source text: as §1

oat, wild = format: in vivo, Avena fatua; conditions: for Plant response rating, Oat, Wild: Preemergence, scale 0 to 100 (0 no effect, 100 complete control); for Plant response rating: Postemergence, Oat, Wild, scale 0 to 100
Source text: as §1

windgrass = format: in vivo, Apera spica-venti; conditions: for Plant response rating, Windgrass: Preemergence, scale 0 to 100 (0 no effect, 100 complete control); for Plant response rating: Postemergence, Windgrass, scale 0 to 100
Source text: as §1

chamomile = format: in vivo, Matricaria inodora; conditions: for Plant response rating: Chamomile, scale 0 to 100; for Plant response rating, Chamomile: scale 0 to 100 (0 no effect, 100 complete control)
Source text: as §1

For `O=C1NCC(c2ccc(F)c(C(F)(F)F)c2)C1C(=O)Nc1cccc(F)c1F` (racemic) [Compound 77], the “Plant response rating, Chickweed” value (chickweed; Preemergence, 62 g ai/ha) was 90, the “Plant response rating, Chickweed” value (chickweed; Preemergence, 31 g ai/ha) was 75 and the Plant response rating (chickweed; Preemergence, 125 g ai/ha) was 100. For the same compound, the Plant response rating (chickweed; Preemergence, 250 g ai/ha) was 100, the “Plant response rating, Kochia” value (kochia; Preemergence, 62 g ai/ha) was 75 and the “Plant response rating, Kochia” value (kochia; Preemergence, 31 g ai/ha) was 35. The Plant response rating (kochia; Preemergence, 125 g ai/ha) was 80, the Plant response rating (kochia; Preemergence, 250 g ai/ha) was 85 and the “Plant response rating, Wheat, Spring” value (wheat, spring; 62 g ai/ha) was 10. The “Plant response rating, Wheat, Spring” value (wheat, spring; 125 g ai/ha) was 20, the “Plant response rating, Wheat, Spring” value (wheat, spring; 31 g ai/ha) was 10 and the “Plant response rating, Wheat, Spring” value (wheat, spring; 250 g ai/ha) was 25. For the same compound, the “Plant response rating, Wheat, Winter” value (wheat, winter; 62 g ai/ha) was 0, the “Plant response rating, Wheat, Winter” value (wheat, winter; 125 g ai/ha) was 25 and the “Plant response rating, Wheat, Winter” value (wheat, winter; 31 g ai/ha) was 0. For the same compound, the “Plant response rating, Wheat, Winter” value (wheat, winter; 250 g ai/ha) was 55, the “Plant response rating, Oat, Wild” value (oat, wild; 62 g ai/ha) was 15 and the “Plant response rating, Oat, Wild” value (oat, wild; 125 g ai/ha) was 20. For the same compound, the “Plant response rating, Oat, Wild” value (oat, wild; 31 g ai/ha) was 10, the “Plant response rating, Oat, Wild” value (oat, wild; 250 g ai/ha) was 45 and the “Plant response rating, Windgrass” value (windgrass; 62 g ai/ha) was 85. The “Plant response rating, Windgrass” value (windgrass; 125 g ai/ha) was 90, the “Plant response rating, Windgrass” value (windgrass; 31 g ai/ha) was 45 and the “Plant response rating, Windgrass” value (windgrass; 250 g ai/ha) was 95.

Compound `O=C1NCC(c2cc(F)c(F)cc2F)C1C(=O)Nc1cccc(F)c1F` (centres unmarked) [Compound 50] has a Plant response rating (chickweed; Postemergence, 16 g ai/ha) of 10, a Plant response rating (chickweed; Postemergence, 31 g ai/ha) of 15 and a Plant response rating (chickweed; Postemergence, 62 g ai/ha) of 20. For the same compound, the Plant response rating (chickweed; Postemergence, 125 g ai/ha) was 15, the “Plant response rating, Chickweed” value (chickweed; Preemergence, 62 g ai/ha) was 0 and the “Plant response rating, Chickweed” value (chickweed; Preemergence, 16 g ai/ha) was 0. For the same compound, the “Plant response rating, Chickweed” value (chickweed; Preemergence, 31 g ai/ha) was 0, the Plant response rating (chickweed; Preemergence, 125 g ai/ha) was 0 and the Plant response rating (kochia; Postemergence, 16 g ai/ha) was 10. The Plant response rating (kochia; Postemergence, 31 g ai/ha) was 15, the Plant response rating (kochia; Postemergence, 62 g ai/ha) was 15 and the Plant response rating (kochia; Postemergence, 125 g ai/ha) was 0. The “Plant response rating, Kochia” value (kochia; Preemergence, 62 g ai/ha) was 10, the “Plant response rating, Kochia” value (kochia; Preemergence, 16 g ai/ha) was 5 and the “Plant response rating, Kochia” value (kochia; Preemergence, 31 g ai/ha) was 10. For the same compound, the Plant response rating (kochia; Preemergence, 125 g ai/ha) was 0, the Plant response rating (chamomile; Postemergence, 16 g ai/ha) was 0 and the Plant response rating (chamomile; Postemergence, 31 g ai/ha) was 0. The Plant response rating (chamomile; Postemergence, 62 g ai/ha) was 0, the Plant response rating (chamomile; Postemergence, 125 g ai/ha) was 0 and the “Plant response rating, Chamomile” value (chamomile; Preemergence, 62 g ai/ha) was 0. The “Plant response rating, Chamomile” value (chamomile; Preemergence, 16 g ai/ha) was 0, the “Plant response rating, Chamomile” value (chamomile; Preemergence, 31 g ai/ha) was 0 and the Plant response rating (chamomile; Preemergence, 125 g ai/ha) was 5. For the same compound, the Plant response rating (wheat, spring; 16 g ai/ha) was 0, the Plant response rating (wheat, spring; 31 g ai/ha) was 0 and the Plant response rating (wheat, spring; 62 g ai/ha) was 0. The Plant response rating (wheat, spring; 125 g ai/ha) was 0, the “Plant response rating, Wheat, Spring” value (wheat, spring; 62 g ai/ha) was 0 and the “Plant response rating, Wheat, Spring” value (wheat, spring; 125 g ai/ha) was 0. For the same compound, the “Plant response rating, Wheat, Spring” value (wheat, spring; 16 g ai/ha) was 0, the “Plant response rating, Wheat, Spring” value (wheat, spring; 31 g ai/ha) was 0 and the Plant response rating (wheat, winter; 16 g ai/ha) was 0. It also gave a Plant response rating (wheat, winter; 31 g ai/ha) of 0, a Plant response rating (wheat, winter; 62 g ai/ha) of 0 and a Plant response rating (wheat, winter; 125 g ai/ha) of 0. The “Plant response rating, Wheat, Winter” value (wheat, winter; 62 g ai/ha) was 0, the “Plant response rating, Wheat, Winter” value (wheat, winter; 125 g ai/ha) was 0 and the “Plant response rating, Wheat, Winter” value (wheat, winter; 16 g ai/ha) was 0. The “Plant response rating, Wheat, Winter” value (wheat, winter; 31 g ai/ha) was 0, the Plant response rating (oat, wild; 16 g ai/ha) was 0 and the Plant response rating (oat, wild; 31 g ai/ha) was 0. The Plant response rating (oat, wild; 62 g ai/ha) was 0, the Plant response rating (oat, wild; 125 g ai/ha) was 0 and the “Plant response rating, Oat, Wild” value (oat, wild; 62 g ai/ha) was 0. The “Plant response rating, Oat, Wild” value (oat, wild; 125 g ai/ha) was 0, the “Plant response rating, Oat, Wild” value (oat, wild; 16 g ai/ha) was 0 and the “Plant response rating, Oat, Wild” value (oat, wild; 31 g ai/ha) was 0. For the same compound, the Plant response rating (windgrass; 16 g ai/ha) was 0, the Plant response rating (windgrass; 31 g ai/ha) was 0 and the Plant response rating (windgrass; 62 g ai/ha) was 0. The Plant response rating (windgrass; 125 g ai/ha) was 0, the “Plant response rating, Windgrass” value (windgrass; 62 g ai/ha) was 5 and the “Plant response rating, Windgrass” value (windgrass; 125 g ai/ha) was 0. For the same compound, the “Plant response rating, Windgrass” value (windgrass; 16 g ai/ha) was 0 and the “Plant response rating, Windgrass” value (windgrass; 31 g ai/ha) was 0.
